Values joined by “and” are separate entries in the source; they are usually repeats but may differ in a detail not shown here. Equal values may be shown once. Read-outs that look alike come from different tables or passages of the source.
What was measured:
[1] = system: HeLa-ACE2 cells; test: Total cell count in the HeLa-ACE2 TOA assay; assay type: cell-based; conditions: Homo sapiens
Description: Supplement 41467_2021_23328_MOESM3_ESM.xlsx, sheet "Table S1" | column: HeLa-ACE2 TOA cell count

[2] = system: SARS-CoV-2; test: microbe, parasite or virus in culture; assay type: cell-based; conditions: for SARS-CoV-2 % infected cells: 10 µM after 1 h infection; for TOA: HeLa-ACE2, replicate wells n=1-3
[3] = system: SARS-CoV-2; test: microbe, parasite or virus in culture; assay type: cell-based; conditions: for %infected: replicate wells n=1-3
[4] = system: SARS-CoV-2; test: microbe, parasite or virus in culture; assay type: cell-based; conditions: for %infected: Calu-3, replicate wells n=1-3; for EC50: read-out: Calu-3 SARS-CoV-2 EC50
[5] = system: COVID-19; conditions: shortened from 15; ref [7]; cited from earlier work
[6] = system: Calu-3 cells; test: Uninfected Calu-3 48 h Cell-Titer Glo cytotoxicity counter screen
[7] = Uninfected HeLa-ACE2 24 h live/dead cytotoxicity counter screen; assay type: cell-based, human; conditions: human, uninfected HeLa-ACE2 cells
[8] = system: HeLa-ACE2 cells; test: as above; assay type: cell-based, human; conditions: for cytotox: HeLa-ACE2, replicate wells n=1-3
[9] = system: SARS-CoV-2; assay type: cell-based
[10] = system: HeLa-ACE2 cells; test: cells; conditions: Homo sapiens
[11] = system: Calu-3 cells; test: cells; conditions: Homo sapiens
[12] = in vitro; conditions: human
[13] = system: COVID-19; conditions: ref [9]; cited from earlier work
[14] = curve plateau at infinite concentration

With CCC(CC)COC(=O)[C@H](C)N[P@](=O)(OC[C@H]1O[C@@](C#N)(c2ccc3c(N)ncnn23)[C@H](O)[C@@H]1O)Oc1ccccc1 [Remdesivir] the Emax ([1]; HeLa-ACE2, 10 h, curve plateau at infinite concentration, read-out: HeLa-ACE2 TOA cell count Sinf Average) was 100%, the EC50 ([1]; HeLa-ACE2, read-out: HeLa-ACE2 TOA cell count EC50 GeoMean) was over 9610 nM and the “SARS-CoV-2 % infected cells” value ([2]; 4:00:00 post infection) was 0.0558% and 0.1777% and 0.2107%. For the same compound, the “SARS-CoV-2 % infected cells” value ([2]; 5:00:00) was 0.7242% and 1.236% and 0.5657%, the “SARS-CoV-2 % infected cells” value ([2]; 6:00:00) was 1.289% and 0.8606% and the “SARS-CoV-2 % infected cells” value ([2]; 7:00:00) was 0.8435% and 0.9162%. The “SARS-CoV-2 % infected cells” value ([2]; 8:00:00) was 1.114% and 1.68%, the “SARS-CoV-2 % infected cells” value ([2]; 10:00:00) was 1.9707% and 2.635% and the “SARS-CoV-2 % infected cells” value ([2]; 11:00:00) was 2.255% and 2.403%. The “SARS-CoV-2 % infected cells” value ([2]; 12:00:00) was 4.554%, the “SARS-CoV-2 % infected cells” value ([2]; 24:00:00) was 1.211% and 0.9586% and the “activity when treatment was initiated at 1 hpi” value ([2]; HeLa-ACE2, 10 µM) was “effectively blocked the infection”. For the same compound, the TOA ([2]; concentration log[M] -5.61909) was -92.6138 and -80.8583 and -88.199 and -76.7514 and -93.5448 and -83.4805 and -80.3661 and -74.8437 and -99.8898, the TOA ([2]; concentration log[M] -6.09621) was -68.7737 and -49.7255 and -48.7992 and -40.2692 and -44.1304 and -40.198 and -47.0122 and -58.4412 and -51.4261 and the TOA ([2]; concentration log[M] -6.57334) was -20.3161 and -18.1481 and -10.1709 and -1.508 and -0.9303 and -16.8539 and -5.25 and -7.77. For the same compound, the TOA ([2]; concentration log[M] -7.05046) was -7.493 and -17.8403 and -13.1433 and -19.1912 and -3.289 and -5.355 and 2.9336 and -2.419, the TOA ([2]; concentration log[M] -7.52758) was -5.952 and 2.422 and 1.456 and -1.724 and -2.397 and 2.2617 and 7.029 and -1.667 and -1.15 and the TOA ([2]; concentration log[M] -8.0047) was 5.958 and 5.629 and 3.068 and -1.8321 and 3.442 and 6.226 and 7.961 and 4.025 and 11.376. For the same compound, the TOA ([2]; concentration log[M] -8.48182) was 4.28 and 10.7449 and 12.4349 and -4.585 and 4.364 and -1.184 and 4.823 and 5.851 and -1.616, the TOA ([2]; concentration log[M] -8.95894) was -2.286 and -0.1755 and 11.8345 and -1.884 and 3.08 and 1.621 and -5.04 and -0.06688 and -11.3351 and the Emax ([2]; Severe acute respiratory syndrome coronavirus 2, HeLa-ACE2, 10 h, curve plateau at infinite concentration, read-out: HeLa-ACE2 TOA CoV-2 Sinf Average) was 102%. The EC50 ([2]; Severe acute respiratory syndrome coronavirus 2, HeLa-ACE2, read-out: HeLa-ACE2 TOA CoV-2 EC50 GeoMean) was 795 nM, the EC50 ([2]; Severe acute respiratory syndrome coronavirus 2, HeLa-ACE2, fixed 10 hpi, geomean, read-out: CoV-2 TOA EC50) was 770 nM and the “increase in EC50 from MOI = 0.09 to MOI = 2.2” value ([3]; HeLa-ACE2) was 2.7 fold. The EC50 ([3]; HeLa-ACE2, individual values of 9 independent experiments, read-out: EC50 (µM), Fig 1c) was 191 nM and 83 nM and 141 nM and 130 nM and 138 nM (2×), the “%infected” value ([3]; HeLa-ACE2, concentration log[M] -5.61909) was -99.4999% and -95.8005% and -94.7545% and -97.535% and -100.056% and -100.005% and -100.014% and -99.12% and -100% and the “%infected” value ([3]; HeLa-ACE2, concentration log[M] -6.09621) was -99.2124% and -98.9733% and -96.3176% and -99.76% and -100.229% and -100.013%. For the same compound, the “%infected” value ([3]; HeLa-ACE2, concentration log[M] -8.48182) was 18.582% and -4.2719% and -2.02% and 15.6179% and -5.577% and 7.137% and 7.4% and 8.398% and -2.488%, the “%infected” value ([3]; HeLa-ACE2, concentration log[M] -8.95894) was 3.102% and 6.636% and 1.634% and -11.6076% and 6.069% and -5.672% and -8.653% and the Emax ([3]; Severe acute respiratory syndrome coronavirus 2, HeLa-ACE2, 24 h, curve plateau at infinite concentration, read-out: HeLa-ACE2 CoV-2 Sinf Average) was 100%. For the same compound, the EC50 ([3]; Severe acute respiratory syndrome coronavirus 2, HeLa-ACE2, HeLa-ACE2, MOI 0.51, read-out: EC50) was 126 nM, the EC50 ([3]; Severe acute respiratory syndrome coronavirus 2, HeLa-ACE2, HeLa-ACE2, MOI 1.1, read-out: EC50) was 145 nM and the EC50 ([3]; Severe acute respiratory syndrome coronavirus 2, HeLa-ACE2, HeLa-ACE2, MOI 2.2, read-out: EC50) was 223 nM. For the same compound, the EC50 ([3]; Severe acute respiratory syndrome coronavirus 2, HeLa-ACE2, reconfirmed hits, read-out: HeLa-ACE2 SARS-CoV-2 EC50) was 127 nM, the EC50 ([3]; Severe acute respiratory syndrome coronavirus 2, HeLa-ACE2, value in brackets*: remdesivir control, read-out: HeLa-ACE2 SARS-CoV-2 EC50) was 123 nM and the “%infected” value ([4]; concentration log[M] -5) was -100% and -99.897% and -100.088% and -98.7564% and -99.5799% and -100.046% and -100.098% and -100.338% and -99.9472%. The “%infected” value ([4]; concentration log[M] -5.47712) was -99.1601% and -98.4923% and -99.234% and -99.2295% and -99.4568% and -99.7507% and -99.3361% and -99.5394% and -98.7541%, the “%infected” value ([4]; concentration log[M] -5.95424) was -89.5337% and -93.208% and -92.5628% and -91.8668% and -95.3312% and -93.4282% and -90.0849% and -90.1886% and -82.0673% and the “%infected” value ([4]; concentration log[M] -6.43136) was -39.9603% and -66.0539% and -61.9632% and -57.8703% and -42.505% and -37.1362% and -41.0562% and -18.9015% and -48.5538%. For the same compound, the “%infected” value ([4]; concentration log[M] -6.90849) was 15.313% and 14.726% and -3.639% and 30.6752% and -6.396% and 10.9651% and -1.713% and -1.879%, the “%infected” value ([4]; concentration log[M] -7.38561) was 1.995% and -3.779% and 16.4097% and -7.2105% and 10.833% and 28.7058% and 9.608% and 17.5254% and the “%infected” value ([4]; concentration log[M] -7.86273) was 12.1902% and -3.292% and 25.9949% and 14.3562% and 4.371% and -33.8895% and 13.327% and 8.365% and 21.3189%. The “%infected” value ([4]; concentration log[M] -8.33985) was -5.4528% and 0% and -9.776% and -9.382% and 5.183% and 10.3172% and 15.4186% and 28.7222%, the Emax ([4]; Severe acute respiratory syndrome coronavirus 2, Calu-3, 48 h, curve plateau at infinite concentration, read-out: Calu-3 CoV-2 Sinf Average) was 102% and the EC50 ([4]; Severe acute respiratory syndrome coronavirus 2, Calu-3, reconfirmed hits) was 606 nM. The EC50 ([4]; Severe acute respiratory syndrome coronavirus 2, Calu-3, value in brackets*: remdesivir control) was 444 nM, the “median time to recovery” value [5] was 11 days and the cytotox ([6]; Calu-3, concentration log[M] -5, replicate wells n=1-3) was 10.3923 and -8.975 and 0.952 and 18.306 and 7.959 and -3.54 and 10.6309 and -10.2579 and 5.131. For the same compound, the “Calu-3 uninfected cytotoxicity Sinf Average” value [6, 14] was -95%, the CC50 at 24 h ([7]; geomean, read-out: uninfected HeLa-ACE2 cytotoxicity CC50) was over 9670 nM and the CC50 at 24 h ([7]; reconfirmed hits, read-out: HeLa-ACE2 Uninf. cells CC50) was 9970 nM. The CC50 at 24 h ([7]; value in brackets*: remdesivir control, read-out: HeLa-ACE2 Uninf. cells CC50) was 9670 nM, the CC50 at 24 h ([7]; read-out: HeLa-ACE2 uninfected cytotoxicity CC50 GeoMean) was 9970 nM and the cytotox ([8]; concentration log[M] -5) was -48.6076 and -58.6844 and -51.3625 and -48.213 and -50.9294 and -56.7143 and -47.8141 and -43.3369 and -36.9299. For the same compound, the cytotox ([8]; concentration log[M] -5.47712) was -19.1561 and -17.8418 and -30.9661 and -14.3691 and -23.5688 and -36.4286 and -15.3846 and -28.169 and -29.0323, the cytotox ([8]; concentration log[M] -5.95424) was 6.751 and 11.4789 and 9.414 and -2.699 and 2.9 and 4.429 and 8.301 and 5.85 and 4.672 and the cytotox ([8]; concentration log[M] -6.43136) was -5.57 and 5.718 and -0.9083 and 5.1787 and 2.305 and -8.143 and -9.851 and -10.8342 and 4.561. The cytotox ([8]; concentration log[M] -6.90849) was 2.8692 and 11.5649 and -1.239 and 5.033 and 15.0929 and 0 and 8.342, the cytotox ([8]; concentration log[M] -7.38561) was -3.882 and -2.966 and 0.578 and 12.6185 and 0.223 and 8.571 and 4.759 and -6.934 and 4.338 and the cytotox ([8]; concentration log[M] -7.86273) was 4.3038 and -8.727 and 10.4046 and -9.847 and -4.535 and -6.857 and 3.25 and -6.674. The cytotox ([8]; concentration log[M] -8.33985) was 0.2532 and 0.129 and -1.817 and 2.115 and -17.6208 and -2.857 and -8.744 and 4.117 and 1.669, the “HeLa-ACE2 uninfected cytotoxicity Sinf Average” value [8, 14] was -86% and the “effect on viral replication in ALI-HBECs” value [9] was “inhibited viral replication”. The Emax ([10]; HeLa-ACE2, 24 h, read-out: HeLa-ACE2 cell count Sinf Average) was 100%, the EC50 ([10]; HeLa-ACE2, read-out: HeLa-ACE2 cell count EC50 GeoMean) was over 9600 nM and the EC50 ([10]; HeLa-ACE2, read-out: cell count in infection assay EC50, HeLa-ACE2, geomean, ^↑ = increasing dose-response curve) was over 1200 nM. The Emax ([11]; Calu-3, 48 h, read-out: Calu-3 cell count Sinf Average) was 103%, the EC50 ([11]; Calu-3, read-out: Calu-3 cell count EC50 GeoMean) was 700 nM and the EC50 ([11]; Calu-3, read-out: cell count EC50, Calu-3, geomean, ^↑ = increasing dose-response curve) was 537 nM. It also gave a CC50 ([12]; Calu-3 Uninf. cells CC50 (µM), reconfirmed hits) of over 30 µM, a CC50 ([12]; Calu-3 Uninf. cells CC50 (µM), value in brackets*: remdesivir control) of over 30 µM and a CC50 ([12]; Calu-3 uninfected cytotoxicity CC50 GeoMean) of over 29.9 µM. For the same compound, the CC50 ([12]; cytotoxicity CC50, uninfected Calu-3, geomean) was over 30 µM and the “mortality of hospitalized COVID-19 patients” value [13] was “failed to reduce mortality”.

From paper PMC8175350, “Drug repurposing screens identify chemical entities for the development of COVID-19 interventions” (Nature Communications, 2021)
